Assay results published in US20260015313A1, “AMINO ACID ACTIVE ESTER AND SALT THEREOF” (PeptiDream Inc., priority 2022, published 2026).

Tested on: tRNA analog (microhelix)
Assay: Aminoacylation of tRNA analog (microhelix) with flexizyme eFx, acid PAGE analysis
Assay type: biochemical
Details: 5 mM substrate, 50 mM Hepes-K pH 7.5, 600 mM MgCl2, 20% DMSO, on ice overnight, FIG. 1-3, 1-4
Procedure: (§1) In the present embodiment, a tRNA was aminoacylated with the active ester synthesized in Example 1 as a substrate using a flexizyme. In order to conveniently confirm acylation with various amino acids, the acylation reaction was performed using, instead of an initiating tRNA (tRNA^Met), a microhelix corresponding to a short analog of the initiating tRNA and the solution after the reaction was subjected to polyacrylamide gel electrophoresis analysis under acidic conditions in order to confirm the aminoacylation efficiency. The mobility of the band derived from the microhelix is slow when it has been aminoacylated. The aminoacylation efficiency can be determined by comparing the intensity of the microhelix band to that of the acylated microhelix band.
The acylation reaction was carried out overnight on ice in a 50 mM Hepes-K buffer (pH 7.5) and 600 mM MgCl2, with a 25 µM flexizyme (eFx), a 25 µM tRNA analog (microhelix) and 5 mM substrate added to 20% DMSO. […]
(§2) The detailed procedure was as follows: 4 μL of a 500 mM Hepes-K buffer (pH 7.5), 4 μL of a 250 µM flexizyme (eFx) and 4 μL of a 250 µM tRNA analog were added to 12 μL of ultrapure water, and the mixture was heated at 95° C. for 3 minutes, and allowed to cool at room temperature for 5 minutes. […] This solution was analyzed with 20% modified PAGE (50 mM sodium acetate, 6 M urea) under acidic conditions.

| SMILES | acylation of tRNA analog by the flexizyme (aminoacylation efficiency) |
| --- | --- |
| N[C@@H](CCc1ccccc1)C(=O)OCC(F)(F)F [Compound No. 47, 2,2,2-trifluoroethyl (S)-2-amino-4-phenylbutanoate] | efficiently acylated |

Tested on: tRNA analog (microhelix)
Assay: Aminoacylation of tRNA analog (microhelix) with flexizyme dFx, acid PAGE analysis
Assay type: biochemical
Details: 5 mM substrate, 50 mM Hepes-K pH 7.5, 50 mM MgCl2, 20% DMSO, on ice overnight, FIG. 1-1, 1-2
Procedure: as §1
The acylation reaction was carried out overnight on ice in a 50 mM Hepes-K buffer (pH 7.5) and 50 mM MgCl2, with a 25 µM flexizyme (dFx), a 25 μM tRNA analog (microhelix) and a 5 mM substrate added to 20% DMSO. […]
as §2, with “1” for “4”, “(dFx)” for “(eFx)”, “3” for “12”, “2” for “3”

| SMILES | acylation of tRNA analog by the flexizyme (aminoacylation efficiency) |
| --- | --- |
| CC[C@H](C)[C@H](N)C(=O)OCc1cc(Cl)nc(Cl)c1 [Compound No. 21, (2,6-dichloropyridin-4-yl)methyl L-isoleucinate] | efficiently acylated |
| NCC(=O)OCc1cc(Cl)nc(Cl)c1 [Compound No. 99, (2,6-dichloropyridin-4-yl)methyl glycinate] | efficiently acylated |

Tested on: not listed separately
Assay: Differential scanning calorimetry (DSC) hazard determination (TDSC, QDSC; Category V Hazardous materials, self-reactive substances)
Assay type: physicochemical
Details: about 2 mg, SUS pressure-resistant cell, to 500° C. at 10° C./min, nitrogen, line through 2,4-dinitrotoluene and benzoyl peroxide, on or above = hazardous, FIG. 2
Source text: Differential scanning calorimetry (DSC) can be used as a method for determining the hazard of an amino acid active ester (Akiyoshi et al., Netsu Sokutei 2018, 45(4), 161-167.; Sakira Kaneko, Netsu Sokutei 1995, 22(1), 36-43.). DSC is an effective means for assessing the hazard of a self-reactive substance, because it can measure the reaction starting temperature (TDSC) and the reaction heat (QDSC) with a trace amount of sample. […] In Japan, DSC is used as a test to determine whether a chemical substance falls under the Category V Hazardous materials (self-reactive substances) under the Japanese Fire Service Act.
Examples of the test for determining whether a chemical substance falls under the Category V Hazardous materials (self-reactive substances) in the Japanese Fire Service Act include a method involving using 2,4-dinitrotoluene and benzoyl peroxide as reference compounds, plotting the reference points of QDSC and TDSC for each of the compounds and drawing a straight line connecting the two points as the hazard determination line.
The QDSC and TDSC values of 2,4-dinitrotoluene (Compound No. 115) and benzoyl peroxide (Compound No. 116) were taken from the following literature: DSC Data Collection for Reactive Substances (2) (RIIS-SD-89), https://www.jniosh.johas.go.jp/publication/houkoku/houkoku_2007_03_list.html.
The detailed procedure for differential scanning calorimetry (DSC) is as follows:
The amino acid active ester (about 2 mg), which had been sealed in a SUS pressure-resistant cell, was set in a heat flux type differential scanning calorimeter, and heated to 500° C. at 10° C./min in an atmosphere of nitrogen 50 mL/min. The sealing into the cell was carried out in atmospheric air, and a blank cell was used as a reference material. The value of indium (In) measured under the same conditions was used as a standard for correction.
In FIG. 2, the dotted line indicates the hazard determination line. […] The abscissa axis indicates the log(TDSC-25) value, and the ordinate axis indicates the log QDSC value. In FIG. 2, -L-Hph-DBE_HCl indicates the hydrochloride of 3,5-dinitrobenzyl (S)-2-amino-4-phenylbutanoate (Compound No. 114), Gly-DBE_HCl indicates the hydrochloride of 3,5-dinitrobenzyl glycinate (Compound No. 112), -L-Ile-DBE_HCl indicates the hydrochloride of 3,5-dinitrobenzyl L-isoleucinate (Compound No. 111), -L-W7N-DBE_HCl indicates the hydrochloride of 3,5-dinitrobenzyl (S)-2-amino-3-(1H-pyrrolo[2,3-b]pyridin-3-yl)propanoate (Compound No. 113), -L-Ile-DCPE_HCl indicates (2,6-dichloropyridin-4-yl)methyl L-isoleucinate (Compound No. 21), -L-W7N-TEE_HCl indicates 2,2,2-trifluoroethyl (S)-2-amino-3-(1H-pyrrolo[2,3-b]pyridin-3-yl)propanoate (Compound No. 81), and Gly-DCPE_HCl indicates (2,6-dichloropyridin-4-yl)methyl glycinate (Compound No. 99).

| SMILES | position of log QDSC vs log(TDSC-25) plot relative to hazard determination line |
| --- | --- |
| N[C@@H](CCc1ccccc1)C(=O)OCc1cc([N+](=O)[O-])cc([N+](=O)[O-])c1 [L-Hph-DBE_HCl, 3,5-dinitrobenzyl (S)-2-amino-4-phenylbutanoate] | above the hazard determination line |
| Cl.NCC(=O)OCc1cc(Cl)nc(Cl)c1 [Gly-DCPE_HCl, (2,6-Dichloropyridin-4-yl)methyl glycinate hydrochloride] | below the hazard determination line |
| NCC(=O)OCc1cc([N+](=O)[O-])cc([N+](=O)[O-])c1 [Gly-DBE_HCl, 3,5-dinitrobenzyl glycinate] | above the hazard determination line |
| N[C@@H](Cc1c[nH]c2ncccc12)C(=O)OCc1cc([N+](=O)[O-])cc([N+](=O)[O-])c1 [L-W7N-DBE_HCl, 3,5-dinitrobenzyl (S)-2-amino-3-(1H-pyrrolo[2,3-b]pyridin-3-yl)propanoate] | above the hazard determination line |
| CC[C@H](C)[C@H](N)C(=O)OCc1cc(Cl)nc(Cl)c1.Cl [L-Ile-DCPE_HCl, (2,6-Dichloropyridin-4-yl)methyl L-isoleucinate hydrochloride] | below the hazard determination line |
| Cl.Cl.N[C@@H](Cc1c[nH]c2ncccc12)C(=O)OCC(F)(F)F [L-W7N-TEE_HCl, 2,2,2-Trifluoroethyl (S)-2-amino-3-(1H-pyrrolo[2,3-b]pyridin-3-yl)propanoate dihydrochloride] | below the hazard determination line |
| CC[C@H](C)[C@H](N)C(=O)OCc1cc([N+](=O)[O-])cc([N+](=O)[O-])c1 [L-Ile-DBE_HCl, 3,5-dinitrobenzyl L-isoleucinate] | above the hazard determination line |
